System: BV2 microglial cells
Test: α-synuclein-induced TNFα secretion by BV2 microglia cell cultures
Assay type: cell-based, murine
Method: The BV2 cells are cultured at 37° C. in a humidified atmosphere with 5% CO2 in high D-glucose (4.5 g/L) Dulbecco’s modified Eagle’s medium (Sigma, Rehovot, Israel) supplemented with 5% heat-inactivated fetal bovine serum, streptomycin (100 µg/ml), and penicillin (100 units/ml) and sodium pyruvate (1 mM; all from Biological Industries Ltd., Kibbutz Beit Haemek, Israel). 24 hours before experiments with LPS stimulation, the BV2 cells are split into 24 well plates, 2×10^5 cells per well, covered with 1 ml of growth medium and allowed to attach overnight. 24 hr before experiments with α-synuclein, the BV2 cells are split into 96-well plates, 50,000 (5×10^4) cells per well, covered with 200 µl of growth medium and allowed to attach overnight. Cultures of BV2 microglia cells are first treated by an individual cannabinoid, or terpene or flavonoid selected from: Cannabidiol (CBD), Δ-9-tetrahydrocannabinol (THC), Δ-8-tetrahydrocannabinol (THC), cannabigerol (CBG), cannabichromene (CBC), cannabigerolic acid (CBGA), Cannabidiolic acid (CBDA), THC acid (THCA), cannabichromenic Acid (CBCA), Cannabidivarin (CBDV), tetrahydrocannabivarin (THCV), Cannabichromevarin (CBCV), Cannabichromerocin ([…]), Cannabivarin (CBV), Cannabicitran (CBT), Cannabinol (CBN), Cannabicyclol (CBL), Cannabigerorcin (CBGO), Cannabinodiol (CBND), β-caryophyllene, β-elemene, β-myrcene, linalool, α-pinene, β-pinene, eucalyptol, alpha-terpineol, valencene, geraniol (lemonol), bisabolol, nerolidol, ocimene, terpinolene, humulene, α-terpinene, camphene, fenchol, α-phellandrene, Δ3-carene, γ-cardinene, sabinene, limonene, β-amyrin, cycloartenol, cannflavin A, cannflavin B, kaempferol, quercetin, luteolin, apigenin, canniprene, orientin, β-sitosterol, vitexin, isovitexin, and chrysin. Additional cultures of BV2 microglia cells are treated by an individual cannabinoid, with at least one additional cannabinoid, and/or terpene, and/or flavonoid, and/or celecoxib. Additional cultures are exposed to the vehicle of these compounds (cremophor, ethanol and PBS, 1:1:18 (v/v/v)) (FIG. 2A). In some studies, cultures of BV2 microglia cells are treated by a specific whole plant cannabis extract, with or without supplementation with cannabinoid(s), and/or terpene(s) and/or flavonoid(s), and/or celecoxib (FIG. 2B).
For each individual cannabinoid mentioned above, 3-4 concentrations are used, ranging from 0.1 to 10 µM. For ultra-low dose Δ9-THC the concentration used is 0.01 µM. For each individual terpene or flavonoid mentioned above, 3-4 concentrations are used, ranging from 1 to 50 µM. For celecoxib, 3-4 concentrations are used, ranging from 0.1 to 10 µM. Two hours following the treatment, the cultures are exposed to one of the following microglia stimulators: LPS (Sigma L2630; Escherichia coli serotype O111:B4) is dissolved in D-PBS (Sigma, D8537) to a pre-stock concentration of 1 mg/ml, aliquoted and stored at -80° C. Stock solution of LPS at 10 ug/ml is prepared using sterile D-PBS, followed by filtering via 0.22 µm filter membrane, aliquoting and storing in -20° C. LPS is applied into the cell medium at a final concentration of 100 ng/ml. Poly I:C (Sigma, P1530) was first dissolved in sterile, molecular grade water to the concentration of 10 mg/ml (following the manufacturer’s instructions). This stock solution was further diluted to the concentration of 1 mg/ml in sterile PBS, and the aliquots stored in -20 °C. […] To induce oligomerization, α-Synuclein solution is placed for 24 hours on a shaker with agitation of 80 rpm and at 37° C.

SMILES: C=C(C)[C@@H]1CCC(C)=C[C@H]1c1c(O)cc(CCCCC)cc1O [CBD, cannabidiol]
- secretion of TNFα in cells incubated with α-synuclein aggregates/fibrils (Example 3, 10 µM): reduced
- release of TNFα by microglia incubated with α-synuclein aggregates/fibrils (Example 8, CBD by itself 1, 2.5 or 5 µM): neither CBD (1, 2.5, or 5 µM) nor celecoxib (1 or 2.5 µM) by themselves affected the release of TNFα
- IC50 (Mus musculus, BV-2, read-out: IC50, α-synuclein-induced TNFα release, Example 8 (FIG. 9B), by itself): 5.1 µM
